Where two headings read alike, the source gives them in different places.
Experiments:
[1] = tested on: platelets of rabbit blood; experiment: In vitro platelet antiaggregant activity, ADP-induced aggregation; format: cell-based
Protocol: (§1) The platelet antiaggregant activity of IPA 955 has been determined in comparison with a known antiaggregant activity, Ticlopidine, on the platelets of rabbit blood added with 3.6% sodium citrate in an amount of 10%. The blood was centrifuged for 15' at 1200 rpm and the surnatant was recovered for its platelet content. The residue has been further centrifuged with the aim of obtaining a "poor" plasma (3000 - 3500 rpm). The plasma platelets obtained after the first centrifugation were suitably diluted with the poor plasma, counted and the rich plasma (first centrifugation) was diluted according to the platelet count so as to obtain a final concentration of platelets of 25.10⁴ ÷ 30.10⁴/mm³.
(§2) The aggregation was induced by the addition of ADP and collagene at the specified concentrations.

[2] = tested on: platelets of rabbit blood; experiment: In vitro platelet antiaggregant activity, collagen-induced aggregation; format: cell-based; conditions: for inhibition at 625 µM / inhibition at 1250 µM: Oryctolagus cuniculus, Platelet, read-out: Percent inhibition; for inhibition at 625 µM: compound 0.625 mM; for inhibition at 1250 µM: compound 1.25 mM
Protocol: as §1, §2

[3] = biological target: T1, aldose-reductase (Rattus norvegicus, UniProt P07943); experiment: Aldose-reductase inhibitory activity (rat lens homogenate supernatant, method of Varma and Kinoshita); format: biochemical, rats
T1 construct: The surnatant, after centrifugation at 3000 x g for 15 minutes, has been used; from tissue; host or cells: crystalline lenses of adult male rats (homogenate supernatant)
Protocol: Crystallin lenses of adult male rats have been homogenized in 0.1 M phosphate buffer pH 6.2. The surnatant, after centrifugation at 3000 x g for 15 minutes, has been used. The surnatant contained 13 mg/ml of proteins. Quercitrin (Fluka, Buchs) 1 mM dissolved in DMSO: H2O (1:10) has been used. The aldose-reductase activity has been tested by the method described by […] J.H. Kinoshita (Biochem. Pharmacol. 25, 2505, 1976) using 1 ml of final volume containing NAPDH (20 μl of a 10 mM solution), DL glyceraldheide 1.5 x 10^-3 M final, […] (25 μl of a 1 M solution) and 150 μl of a surnatant. The blank contained the same substances, except the surnatant.

[4] = Acute toxicity in the mouse (LD50 by Litchfield and Wilcoxon method); format: in vivo; conditions: oral and intravenous administration, at the tested doses
Protocol: The acute toxicity of IPA 955 has been studied in the mouse after oral and intravenous administration. The LD₅₀ values were calculated according to the Litchfield and Wilcoxon method (J. Pharm. Exp. Therap. 1949, 96, 99).

[5] = ADP conc. 5.0 μM, compound 1.25 mM
[6] = ADP conc. 6.25 μM, compound 0.625 mM
[7] = ADP conc. 6.25 μM, compound 1.25 mM
[8] = ADP conc. 8.3 μM, compound 1.25 mM
[9] = ADP conc. 12.5 μM, compound 0.625 mM
[10] = ADP conc. 12.5 μM, compound 1.25 mM

Compound	Percent inhibition [1, 5]	Percent inhibition [1, 6]	Percent inhibition [1, 7]	Percent inhibition [1, 8]	Percent inhibition [1, 9]	Percent inhibition [1, 10]	inhibition at 625 µM ([2]; collagene 25 μg/ml)	inhibition at 1250 µM ([2]; collagene 25 μg/ml)	inhibition at 1250 µM ([2]; collagene 50 μg/ml)	Percent inhibition ([1]; ADP-induced aggregation, summary over the tables)	activity relative to quercitrin (times higher) ([3]; ratio of Ki values against quercitrin)	Ki ([3]; supernatant of rat lens homogenate, DL glyceraldheide 1.5 x 10⁻³ M, NADPH, read-out: Ki)	platelet antiaggregation activity (percent inhibition) ([2]; collagen induced aggregation, summary over the tables)	acute toxicity [4]	Ki [3]
Clc1ccccc1CN1CCc2sccc2C1 [TICLOPIDINE, Ticlopidine, reference compound]	24.4%	9.7%	20.5%	19.75%	15.66%	20.02%	45.3%	66.5%	59.6%						
O=C(O)CCN1C(=O)c2cccc3cccc(c23)C1=O [IPA 955, N-(2-carboxy)-ethyl-1,8-naphthaleneimide]	14.6%	8.4%	25.66%	16.3%	23.17%	16.85%	41%	48.8%	38.7%	about 20%	about 6 times	1.04 µM	40 to 50%	practically devoid of toxicity	
C[C@@H]1O[C@@H](Oc2c(-c3ccc(O)c(O)c3)oc3cc(O)cc(O)c3c2=O)[C@H](O)[C@H](O)[C@H]1O [quercitrin, reference compound]															6 µM

Source: patent publication EP0206322B1, “N-(2-carboxy)-ethyl-1,8-naphthalene imide and its salts for the treatment of diabetic retinopathies and neuropathies” (I.P.A. INTERNATIONAL PHARMACEUTICAL ASSOCIATED S.r.l., priority 1985, dated 1986)
